According to the NIST ThermoML archive (doi:10.1021/je049816w):
± gives the expanded uncertainty stated by the source.

Conditions: Liquid, Ebulliometric method (Recirculating still)

SMILES: CCOC(C)OCC [1,1-diethoxyethane]
- vapor or sublimation pressure (328.35 K): 19 ± 0.2 kPa
- vapor or sublimation pressure (341.62 K): 32.1 ± 0.2 kPa
- vapor or sublimation pressure (345.13 K): 36.7 ± 0.2 kPa
- vapor or sublimation pressure (348.33 K): 41.1 ± 0.2 kPa
- vapor or sublimation pressure (353.38 K): 49.2 ± 0.2 kPa
- vapor or sublimation pressure (357.95 K): 57.9 ± 0.3 kPa
- vapor or sublimation pressure (361.96 K): 66.1 ± 0.3 kPa
- vapor or sublimation pressure (364.68 K): 72.3 ± 0.3 kPa
- vapor or sublimation pressure (366.99 K): 77.9 ± 0.3 kPa
- vapor or sublimation pressure (369.09 K): 83.1 ± 0.3 kPa
- vapor or sublimation pressure (371.7 K): 90.1 ± 0.3 kPa
- vapor or sublimation pressure (373.41 K): 94.8 ± 0.3 kPa
- vapor or sublimation pressure (375.27 K): 100 ± 0.3 kPa
